The test addresses T1, ST3Gal-II (Rattus norvegicus, UniProt Q11205).
T1 construct: purchased Calbiochem
T1 sequence (Q11205 1-350): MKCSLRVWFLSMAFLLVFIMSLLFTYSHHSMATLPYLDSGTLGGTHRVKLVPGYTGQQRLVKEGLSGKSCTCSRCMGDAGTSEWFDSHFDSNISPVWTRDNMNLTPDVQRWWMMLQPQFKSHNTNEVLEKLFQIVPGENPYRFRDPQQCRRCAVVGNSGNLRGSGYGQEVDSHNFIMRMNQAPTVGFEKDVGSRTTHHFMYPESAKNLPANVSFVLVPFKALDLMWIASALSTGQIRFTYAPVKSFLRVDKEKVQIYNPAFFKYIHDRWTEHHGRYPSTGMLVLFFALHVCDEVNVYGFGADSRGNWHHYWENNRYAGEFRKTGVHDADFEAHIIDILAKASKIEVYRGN
The test is described as follows: Reverse sialylation equilibrium constant (Keq) and 5′-CMP dose dependence. The note with it: donor 0.15 mM [2], 0.15 mU ST3Gal-II, 2 hours; read-out: concentration of 5′-CMP that mediated half-maximal transfer of [9-3H]NeuAc. It is filed as biochemical. The method, then:
FIG. 2. Equilibrium constant. a. Reversible sialyltransferase activity at increasing concentration of 5′-CMP. 0.15 mM of donor [9-^3H]NeuAcα2,3Galβ1,3(4-FGlcNAcβ1,6)GalNAcα-O-Bn [9-^3H[2]] was incubated with varying concentrations of 5′-CMP and 0.15 mU ST3Gal-II under conditions described in FIG. 1 for 2 hours. The consumption of the [9-^3H]NeuAc benzyl glycoside donor was measured by subjecting the incubation mixture to Sep-Pak C18 fractionation, which binds the donor and not CMP-[9-^3H]NeuAc. The reaction proceeded to ½ the maximum extent at 80 μM 5′-CMP. b. Equilibrium constant Keq (=0.35) calculated for data in panel a. c. Varying concentrations of 5′-CMP was sialylated with ST3Gal-II (2.0 mU) using either 0.15 mM (panel c) or 1.5 mM (not shown) sialyl donor [9-^3H]NeuAcα2,3Galβ1,3GalNAcβ1,3Galα-O-Me [9-^3H[3]] for 4 hours. The product CMP-[9-^3H]NeuAc and the unused [9-^3H[3]] were separated and quantitated by Dowex-1-Formate method. d. Equilibrium constant, Keq=98.9. Diamonds denote data from 1.5 mM runs while data from 0.15 mM runs are depicted by squares.
a) Biogel P2 chromatography: A Biogel P2 column (Fine Mesh; 1.0×116.0 cm) was used with 0.1 M pyridine acetate (pH5.4) as the eluent at room temperature. […] Fractions of 1.0 ml were collected. The bound material was then eluted with 0.5M GlcNAc or 0.2M Gal in the same buffer. […] Calculation of equilibrium constant, Keq: Equilibrium constant was calculated for selected reversible bimolecular reactions that are denoted by:
[formula] Here, [9-^3H]D* denotes the radiolabeled donor and D′ is the donor after removal of sialic acid. Similarly, A and [9-^3H]A* denote the acceptor before and after incorporation of NeuAc. In each run, unreacted [9-^3H]D* and product [9-^3H] A* are measured using radioactivity measurements. The equilibrium constant (Keq=kreverse/kforward, dimensionless units) are then determined using the following equation, where terms in square brackets denote concentrations:
[formula] [D0] and [A0] are initial donor and acceptor concentrations. A plot of [D*]/([D0]−[D*]) versus [A*]/([A0]−[A*]) yields Keq from slope data. Keq<1 implies that the forward reaction is favored and the reaction proceeds to the right side to form [9-^3H]A* efficiently. Liquid Chromatography Coupled with Tandem Mass Spectrometry (LC/MS/MS)
Similar results were observed upon increasing concentrations of 5′-CMP when [9-^3H]NeuAcα2,3Galβ1,3(4-FGlcNAcβ1,6) GalNAcα-O-Bn [9-^3H[2]] was donor (FIG. 2a, b). The concentration of 5′-CMP that mediated half-maximal transfer of [9-^3H]NeuAc was 80 μM. The bimolecular equilibrium constant (Keq) for this reaction was 0.35 (dimensionless units, Table I). Indeed, the Keq varied depending on the donor and it was 98.9 when the donor was based on the globo glycolipid, [9-^3H]NeuAcα2,3Galβ1,3GalNAcβ1,3 Gala-O-Me [[9-^3H] [3]] (FIG. 2c, d). Upon comparing and [3], it is apparent that reverse sialylation proceeds more effectively in the case of [2]. To further confirm the above estimates of Keq for core-2 based structures, we also calculated this parameter for our previously published data where [9-^3H]CMP-NeuAc was donor and mucin core-2 tetrasaccharide Galβ1,4GlcNAcβ1,6(Galβ1,3)GalNAcα-O-Bn was acceptor. In this case, Keq measured with respect to the rate of mucin core-2 sialylation was 5.55 (data not shown), which translates to a reverse sialylation Keq of 0.18.

The record followed here is patent US8278072B1, “Method for synthesis of sialylated products using reversible sialylation” (Health Research, Inc., priority 2007, dated 2012).

Take `Nc1ccn([C@@H]2O[C@H](COP(=O)(O)O)[C@@H](O)[C@H]2O)c(=O)n1` [5′-CMP, Cytidine 5′-monophosphate]: the EC50 amounted to 80 µM.
